The structures appear in SMILES notation. Where “and” joins values, the source holds several entries; their conditions need not be identical. Equal values may be shown once.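 A five-concentration, 48-hour dose response in 96-well plates underlies each endpoint, interpolated linearly between surrounding concentrations. GI50 marks 50% less growth. TGI: concentration producing complete growth inhibition.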

The text below walks through data of PubChem BioAssay (NCI).

Among the test systems are A549 NSCLC; K-562 leukemia; MALME-3M melanoma; NCI/ADR-RES ovarian; OVCAR-3 ovarian; OVCAR-8 ovarian; PC-3 prostate; RXF 393 renal; SK-MEL-28 melanoma; TK-10 renal.
Assay in all cases: NCI anticancer screen, dose series, 48 h

As for `CCN(CC)CCCC(Nc1c2ccc(Cl)cc2nc2ccc(OC)cc12)c1ccc(Cl)cc1` (centres undefined), the GI50 in the assay on A549 NSCLC was 1.52 µM; in the assay on K-562 leukemia, 0.221 µM; with MALME-3M melanoma, 1.88 µM; in the assay on NCI/ADR-RES ovarian, 1.47 µM; in the assay with OVCAR-3 ovarian, 1.22 µM; in the assay with OVCAR-8 ovarian it was 1.05 µM. Also, the GI50 in the assay with PC-3 prostate is 1.55 µM; in the assay on RXF 393 renal, 1.03 µM; in the assay on SK-MEL-28 melanoma, 1.34 µM; in the assay on TK-10 renal, 1.62 µM. In addition, the TGI in the assay on A549 NSCLC was 3.05 µM; with K-562 leukemia, 0.432 µM; with MALME-3M melanoma it was 3.55 µM; in the assay with NCI/ADR-RES ovarian, 3.08 µM; with OVCAR-3 ovarian it was 2.75 µM; with OVCAR-8 ovarian, 2.47 µM. For the same molecule, the TGI in the assay on PC-3 prostate amounted to 3.04 µM; in the assay with RXF 393 renal it was 2.31 µM; in the assay with SK-MEL-28 melanoma, 2.9 µM; in the assay with TK-10 renal, 3.14 µM.

As to `COc1ccc(N(CC(=O)O)N=O)cc1`, the TGI in the assay on A549 NSCLC, in the assay on K-562 leukemia, in the assay on MALME-3M melanoma, in the assay on NCI/ADR-RES ovarian, in the assay on OVCAR-3 ovarian and in the assay on OVCAR-8 ovarian was more than 100 µM in each case. The TGI with PC-3 prostate, in the assay with RXF 393 renal, in the assay on SK-MEL-28 melanoma and in the assay with TK-10 renal was more than 100 µM in each case.

With `Nc1nc(-c2ccccc2)c(CC(=O)O)s1`, the TGI in the assay with A549 NSCLC, in the assay on K-562 leukemia, in the assay on MALME-3M melanoma, in the assay on NCI/ADR-RES ovarian, in the assay on OVCAR-3 ovarian and with OVCAR-8 ovarian was more than 100 µM in each case. In addition, the TGI with PC-3 prostate, in the assay with RXF 393 renal, with SK-MEL-28 melanoma and in the assay with TK-10 renal was more than 100 µM in each case.

As to `OCc1ccc(-c2ccc(-c3ccc(CO)o3)o2)o1`, the GI50 is more than 100 µM in the assay on A549 NSCLC; more than 100 µM in the assay on K-562 leukemia; 8.22 µM in the assay with MALME-3M melanoma; more than 100 µM in the assay with NCI/ADR-RES ovarian; more than 84.6 µM in the assay on OVCAR-3 ovarian; more than 100 µM in the assay on OVCAR-8 ovarian. The GI50 in the assay with PC-3 prostate was more than 100 µM; in the assay on RXF 393 renal, 26.5 µM; with SK-MEL-28 melanoma, more than 100 µM; in the assay on TK-10 renal it was 2.63 µM. The TGI in the assay with A549 NSCLC is more than 100 µM; with K-562 leukemia, more than 100 µM; with MALME-3M melanoma, 69.6 µM; with NCI/ADR-RES ovarian it was more than 100 µM; with OVCAR-3 ovarian it was more than 100 µM; with OVCAR-8 ovarian, more than 100 µM. Also, the TGI with PC-3 prostate is more than 100 µM; with RXF 393 renal, more than 90 µM; with SK-MEL-28 melanoma it was more than 100 µM; with TK-10 renal it was 19.8 µM.

For the molecule `O=C(CCCCN1CCN(CCCCC(=O)Nc2ccccc2C#C/C=C\C#Cc2ccccc2C(F)(F)F)CC1)Nc1ccccc1C#C/C=C\C#Cc1ccccc1C(F)(F)F`, the GI50 with A549 NSCLC was 12.4 µM; with K-562 leukemia, 8.04 µM; in the assay with MALME-3M melanoma, 12.2 µM; in the assay with NCI/ADR-RES ovarian, 9.64 µM; in the assay on OVCAR-3 ovarian it was 10.6 µM; with OVCAR-8 ovarian it was 12.2 µM. The GI50 is 13.9 µM in the assay with PC-3 prostate, 9.81 µM with RXF 393 renal, 9.76 µM in the assay with SK-MEL-28 melanoma and 16.6 µM with TK-10 renal. In addition, the TGI stood at 37.6 µM in the assay on A549 NSCLC; 34.8 µM in the assay with K-562 leukemia; 29.5 µM with MALME-3M melanoma; 20 µM in the assay with NCI/ADR-RES ovarian; 21.8 µM in the assay with OVCAR-3 ovarian; 28.5 µM with OVCAR-8 ovarian. The TGI is more than 50 µM in the assay on PC-3 prostate, 23.5 µM in the assay with RXF 393 renal, 18.4 µM in the assay with SK-MEL-28 melanoma and 36 µM in the assay on TK-10 renal.

As for `O=C1Nc2ccc(-c3cccnc3)cc2/C1=C/c1cc(Br)c(O)c(Br)c1`, the GI50 in the assay on A549 NSCLC is 8.05 µM; in the assay on K-562 leukemia it was 9.07 µM; with MALME-3M melanoma, 3.96 µM; in the assay with NCI/ADR-RES ovarian it was more than 20 µM; with OVCAR-3 ovarian, 5.05 µM; in the assay on OVCAR-8 ovarian, 9.89 µM. Moreover, the GI50 is 9.05 µM with PC-3 prostate, 6.08 µM in the assay with RXF 393 renal, 4.89 µM in the assay on SK-MEL-28 melanoma and 7.82 µM in the assay on TK-10 renal. Besides, the TGI was more than 25 µM with A549 NSCLC; more than 25 µM with K-562 leukemia; 23.9 µM in the assay on MALME-3M melanoma; more than 25 µM in the assay with NCI/ADR-RES ovarian; 12.8 µM with OVCAR-3 ovarian; more than 25 µM with OVCAR-8 ovarian. Besides, the TGI in the assay on PC-3 prostate is more than 25 µM; in the assay on RXF 393 renal, more than 19.9 µM; in the assay on SK-MEL-28 melanoma, 14.6 µM; with TK-10 renal it was 24.3 µM.

`Cc1ccc(C(=O)Nc2ccc(Oc3cc4cnn(C)c4cc3-c3cn[nH]c3)c(F)c2)c(=O)n1-c1ccc(F)cc1`: the GI50 in the assay on A549 NSCLC is 7.6 µM; in the assay on K-562 leukemia, 5.75 µM; with MALME-3M melanoma it was 3.35 µM; in the assay on NCI/ADR-RES ovarian, more than 94.1 µM; in the assay on OVCAR-3 ovarian it was more than 100 µM; with OVCAR-8 ovarian, 48.8 µM. Also, the GI50 in the assay with PC-3 prostate is 16.3 µM; in the assay with RXF 393 renal, 2.23 µM; in the assay with SK-MEL-28 melanoma, 3.54 µM; with TK-10 renal it was 1.95 µM. The TGI in the assay on A549 NSCLC, with K-562 leukemia, in the assay with MALME-3M melanoma, in the assay on NCI/ADR-RES ovarian, in the assay on OVCAR-3 ovarian and in the assay with OVCAR-8 ovarian was more than 100 µM in each case. Further, the TGI was more than 100 µM with PC-3 prostate, more than 100 µM in the assay with RXF 393 renal, more than 100 µM with SK-MEL-28 melanoma and 35.1 µM in the assay with TK-10 renal.

For the molecule `CC[n+]1c(-c2ccccc2)c2cc(N)ccc2c2ccc(N)cc21`, the GI50 was 2.17 µM with A549 NSCLC; 1.75 µM in the assay on K-562 leukemia; 0.631 µM in the assay on MALME-3M melanoma; 1.61 µM in the assay with OVCAR-3 ovarian; 0.695 µM and 1.37 µM and 2.94 µM in the assay with OVCAR-8 ovarian; 1.97 µM in the assay on PC-3 prostate. The GI50 was 1.07 µM with RXF 393 renal, 0.607 µM with SK-MEL-28 melanoma and 2.38 µM in the assay with TK-10 renal. Also, the TGI in the assay on A549 NSCLC is 48.3 µM and 76.7 µM and > 95.1 µM; in the assay with K-562 leukemia it was 30.1 µM and 50.5 µM and 35.3 µM; with MALME-3M melanoma, 2.9 µM and 6.43 µM; in the assay with NCI/ADR-RES ovarian it was more than 100 µM; in the assay with OVCAR-3 ovarian, 9.84 µM and 20.4 µM and 15 µM; with OVCAR-8 ovarian it was 12.2 µM and 16.2 µM and 33.2 µM. The TGI is 17.5 µM and 26.5 µM in the assay with PC-3 prostate; 3.51 µM and 17.1 µM in the assay with RXF 393 renal; 2.12 µM and 8.02 µM in the assay with SK-MEL-28 melanoma; 19.7 µM and 68.8 µM in the assay with TK-10 renal.
